How the values were obtained:
[1] = OLINDA/EXM dosimetry estimates; set-up: species or system human (70 kg standard man model)
Description: Rat absorbed dose estimates for ^99mTc-N4-Tyrosine were computed from biodistribution data. Individual organ and whole-body time-activity curves were fitted to exponential functions using OLINDA/EXM software (version 1.1; Vanderbilt University, Nashville, TN, USA). These functions were then integrated analytically to determine the area under the curve to yield the residence time of ^99mTc-N4-Tyrosine in each organ. It was assumed that the injected activity of ^99mTc-N4-Tyrosine was uniformly distributed throughout the body immediately following injection. Mass correction factors were used to account for the different ratios of organs to total body weight and different scaling of residence times between rats and humans. Residence times were then used to calculate target organ absorbed radiation doses for a 70 kg standard man model using the OLINDA/EXM software.

[2] = test system: breast tumor cell line 13762 tumors; assay: Planar scintigraphic imaging in breast tumor-bearing rats; assay type: in vivo, Fischer 344 rats; conditions: for Tumor %ID (percent of injected dose in the tumor) / tumor-to-muscle (T/M) ratio: i.v. 300 μCi/rat
Method: Cells from the breast tumor cell line 13762, suspended in phosphate-buffered solution (10^5 cells/0.1 mL solution per rat), were injected subcutaneously into the right calf muscle of female Fischer 344 rats (n = 9). Planar scintigraphic imaging of ^99mTc-N4-Tyrosine was performed 12–14 days after inoculation when tumors reached approximately 1 cm in diameter. The breast tumor-bearing rats (n = 3/time point) were anesthetized and injected intravenously with ^99mTc-N4-Tyrosine (0.3 mg/rat, 300 μCi/rat), and images were acquired at 30, 120, and 240 minutes after administration of tracers. Planar scintigraphic images were obtained using M-CAM (Siemens Medical Solutions, Hoffman Estates, IL, USA) equipped with a low-energy high-resolution collimator. Computer-outlined regions of interest (ROIs in counts per pixel) between tumor and muscle tissue were used to calculate tumor-to-muscle (T/M) ratios. Percent of injected dose (%ID) in the tumor was also calculated from the reference standard, which was 1/10 of the original injection activity of ^99mTc-N4-Tyrosine.

[3] = test system: breast tumor (13762) and turpentine oil-induced inflammation; assay: Tumor and inflammation uptake comparison, planar scintigraphy; assay type: in vivo, Fischer 344 rats; conditions: tumor- and inflammation-bearing rats
Method: To investigate whether ^99mTc-N4-Tyrosine can differentiate tumor tissue from inflammatory tissue, a rat model bearing both a mammary tumor and tissue with turpentine oil-induced inflammation was created. Rat breast tumor cells (from cell line 13762; 10^5 cells/0.1 mL phosphate-buffered solution per rat) were injected into the right calf muscles of 3 female Fischer 344 rats. After the tumors reached 1 cm in diameter, turpentine oil (0.1 mL/rat) was injected into the left calf muscles of the rats to induce inflammation. The anesthetized rats were injected intravenously with ^99mTc-N4-Tyrosine 24 hours after the turpentine injection. Planar scintigraphic images were acquired at 30, 120, and 240 minutes after the ^99mTc-N4-Tyrosine injection, and ROIs of the tumor, inflamed tissue, and muscle were used to calculate the tumor-to-muscle ratios (T/Ms), inflammation-to-muscle ratios (I/Ms), and tumor-to-inflammation ratios (T/Is), respectively. The same animal model was used to evaluate ^18F-FDG. Micro-PET imaging of ^18F-FDG was performed using an R4 micro-PET scanner (Concorde Microsystems, Knoxville, TN, USA). Three breast tumor- and inflammation-bearing rats were injected intravenously with ^18F-FDG (500 μCi/rat), and dynamic PET scans with a spatial resolution of 2.2 mm were obtained at 30, 60, and 90 minutes after ^18F-FDG injection. PET images were reconstructed by using the ordered subset expectation maximization (OSEM) algorithm. T/M, I/M, and T/I ratios were calculated using the regional radioactivity concentrations (μCi/cm^3) that were estimated from the average pixels within ROIs drawn around the tumor, inflamed tissue, or muscle on transverse slices of the reconstructed image sets.

[4] = Partition coefficient (1-octanol/sterile water); assay type: physicochemical; conditions: room temperature
Method: To determine the lipophilicity, 20 μL of ^99mTc-N4-Tyrosine was added into an equal volume mixture of 1-octanol and sterile water in a centrifuge tube. The mixture was vortexed at room temperature for 1 minute and then centrifuged at 5,000 rpm for 5 minutes to allow phase separation. From each phase, 0.1 mL of the aliquot was taken out, and the radioactivity was measured by gamma counter (Cobra Quantum, Packard, MN, USA). The measurement was repeated 3 times, and care was taken to avoid cross-contamination between the phases. The partition coefficient value, expressed as log P, was calculated using the following equation:
(1) Log P= log(radioactivity in 1‐octanol layer/radioactivity in sterile water layer)

[5] = Blood clearance in normal rats; assay type: in vivo; conditions: normal female Fischer 344 rats, i.v. 30 μCi
Method: All animal work was carried out in the Small Animal Imaging Facility at MD Anderson under a protocol approved by the Institutional Animal Care and Use Committee. For blood clearance analysis, 3 normal female Fischer 344 rats (150 ± 25 g; Harlan Sprague-Dawley, Indianapolis, IN, USA) were intravenously injected with 30 μCi of ^99mTc-N4-Tyrosine. Blood samples (n = 3/rat) were drawn from each rat through the lateral tail vein by microliter pipette (10 μL) at several time points between 5 minutes and 24 hours after injection. The blood samples were measured for radioactivity by gamma counter, and the radioactivity was expressed as a percentage of the injected dose per gram of blood (%ID/g).

[6] = 15 mCi per patient, 70 kg adult man

^99mTc-O-[3-(1,4,8,11-tetraazabicyclohexadecane)-propyl]-tyrosine [^99mTc-N4-Tyrosine]
Human dose (15 mCi), Adrenals [1, 6]: 2.58E − 01 rem | Human dose (15 mCi), Brain [1, 6]: 2.61E − 02 rem | Human dose (15 mCi), Breasts [1, 6]: 7.08E − 02 rem | Human dose (15 mCi), Effective dose [1, 6]: 1.22E − 01 rem | Human dose (15 mCi), Effective dose equivalent [1, 6]: 3.17E − 01 rem | Human dose (15 mCi), Gallbladder wall [1, 6]: 2.10E − 01 rem | Human dose (15 mCi), Heart wall [1, 6]: 4.73E − 01 rem | Human dose (15 mCi), Kidneys [1, 6]: 2.70E + 00 rem | Human dose (15 mCi), Liver [1, 6]: 3.06E − 01 rem | Human dose (15 mCi), Lower large intestine wall [1, 6]: 9.00E − 02 rem | Human dose (15 mCi), Lungs [1, 6]: 1.26E − 01 rem | Human dose (15 mCi), Muscle [1, 6]: 7.44E − 02 rem | Human dose (15 mCi), Osteogenic cells [1, 6]: 2.90E − 01 rem | Human dose (15 mCi), Ovaries [1, 6]: 9.80E − 02 rem | Human dose (15 mCi), Pancreas [1, 6]: 2.09E − 01 rem | Human dose (15 mCi), Red marrow [1, 6]: 1.06E − 01 rem | Human dose (15 mCi), Skin [1, 6]: 4.95E − 02 rem | Human dose (15 mCi), Small intestine [1, 6]: 1.50E − 01 rem | Human dose (15 mCi), Spleen [1, 6]: 3.14E − 01 rem | Human dose (15 mCi), Stomach wall [1, 6]: 1.38E − 01 rem | Human dose (15 mCi), Testes [1, 6]: 4.40E − 02 rem | Human dose (15 mCi), Thymus [1, 6]: 1.27E − 01 rem | Human dose (15 mCi), Thyroid [1, 6]: 6.92E − 02 rem | Human dose (15 mCi), Total Body [1, 6]: 1.10E − 01 rem | Human dose (15 mCi), Upper large intestine wall [1, 6]: 1.36E − 01 rem | Human dose (15 mCi), Urinary bladder wall [1, 6]: 7.71E − 02 rem | Human dose (15 mCi), Uterus [1, 6]: 9.80E − 02 rem | Total rem absorbed by each organ versus US FDA limits for radioactive research drugs ([1]; proposed injection of 15 mCi per patient): below these limits | tumor detection by planar scintigraphic imaging ([2]; all time points (30, 120, 240 minutes)): clearly detected | Tumor %ID (percent of injected dose in the tumor) ([2]; 30 minutes): 1.82 %ID | tumor-to-muscle (T/M) ratio ([2]; 30 minutes): 5.12 | Tumor %ID (percent of injected dose in the tumor) ([2]; 120 minutes): 1.87 %ID | tumor-to-muscle (T/M) ratio ([2]; 120 minutes): 4.88 | Tumor %ID (percent of injected dose in the tumor) ([2]; 240 minutes): 1.71 %ID | tumor-to-muscle (T/M) ratio ([2]; 240 minutes): 5.2 | inflammation-to-muscle (I/M) ratio ([3]; 30 min): 4.26 | tumor-to-inflammation (T/I) ratio ([3]; 30 min): 1.2 | tumor-to-muscle (T/M) ratio ([3]; 30 min): 5.12 | inflammation-to-muscle (I/M) ratio ([3]; 120 min): 3.62 | tumor-to-inflammation (T/I) ratio ([3]; 120 min): 1.14 | tumor-to-muscle (T/M) ratio ([3]; 120 min): 4.11 | inflammation-to-muscle (I/M) ratio ([3]; 240 min): 2.45 | tumor-to-inflammation (T/I) ratio ([3]; 240 min): 1.32 | tumor-to-muscle (T/M) ratio ([3]; 240 min): 3.24 | tumor-to-inflammation (T/I) ratios ([3]; all time points): greater than 1 | log P [4]: −2.83 ± 0.082 | plasma half-life of the distribution phase (t1/2α) [5]: 9.31 ± 0.759 min | plasma half-life of the elimination phase (t1/2β) [5]: 90.14 ± 1.901 min
